Assay results taken from PMC6704710, “Preclinical evaluation of 3D185, a novel potent inhibitor of FGFR1/2/3 and CSF-1R, in FGFR-dependent and macrophage-dominant cancer models” (Journal of Experimental & Clinical Cancer Research : CR, 2019).

What was measured:
M-NFS-60 = experiment: Cell proliferation assay; format: cell-based, mouse; settings: Mus musculus; 72 h, mean ± SD
Experimental: The cancer cell lines indicated in Figure 3 were seeded in 96-well plates at a low density in growth medium. The next day, appropriate controls or the designated concentrations of the compounds were added to each well, and the cells were incubated for 72 h. HUVECs (passage 3) were seeded in 96-well plates in growth medium overnight and transferred to serum-free medium for 24 h. The following day, appropriate controls or the designated concentrations of the compounds were added to each well, and 100 ng/mL growth factor (bFGF or VEGF) was added to the indicated wells. The cells were incubated for 48 h. Finally, cell proliferation was determined using a sulforhodamine B (SRB) assay or a cell counting kit-8 (CCK-8) assay. […] IC50 values for proliferation curves were calculated using a 4-parameter logistic nonlinear regression model with SoftMax Pro Software (Molecular Devices, San Jose, USA).

FGFR2 = molecular target: T1, FGFR2 (Homo sapiens, UniProt P21802); experiment: Kinase inhibition assay (ELISA); format: biochemical; settings: mean ± SD
T1 construct: purchased Eurofins (Fremont, United States)

STK25(h) = molecular target: T2, STK25(h) (Homo sapiens, UniProt O00506); experiment: Eurofins kinase panel; format: biochemical; settings: read-out: Inhibition rate (%)
T2 construct: purchased Eurofins (KinaseProfiler)
T2 sequence (O00506 whole entry): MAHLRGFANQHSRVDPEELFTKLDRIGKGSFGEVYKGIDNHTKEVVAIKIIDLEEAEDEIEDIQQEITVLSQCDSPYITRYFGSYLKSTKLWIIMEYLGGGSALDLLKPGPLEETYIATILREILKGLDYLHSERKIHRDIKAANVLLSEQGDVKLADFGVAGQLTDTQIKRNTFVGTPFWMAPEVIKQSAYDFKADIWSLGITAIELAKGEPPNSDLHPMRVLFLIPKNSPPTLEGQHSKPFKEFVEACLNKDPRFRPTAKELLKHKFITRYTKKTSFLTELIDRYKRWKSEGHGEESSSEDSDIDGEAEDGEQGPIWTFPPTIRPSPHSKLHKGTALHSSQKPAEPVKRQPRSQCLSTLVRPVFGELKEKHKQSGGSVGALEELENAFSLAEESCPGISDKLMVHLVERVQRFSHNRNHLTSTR

CDKL1(h) = molecular target: T3, CDKL1(h) (Homo sapiens, UniProt Q00532); experiment: Eurofins kinase panel; format: biochemical; settings: read-out: Inhibition rate (%)
T3 construct: purchased Eurofins (KinaseProfiler)
T3 sequence (Q00532 whole entry): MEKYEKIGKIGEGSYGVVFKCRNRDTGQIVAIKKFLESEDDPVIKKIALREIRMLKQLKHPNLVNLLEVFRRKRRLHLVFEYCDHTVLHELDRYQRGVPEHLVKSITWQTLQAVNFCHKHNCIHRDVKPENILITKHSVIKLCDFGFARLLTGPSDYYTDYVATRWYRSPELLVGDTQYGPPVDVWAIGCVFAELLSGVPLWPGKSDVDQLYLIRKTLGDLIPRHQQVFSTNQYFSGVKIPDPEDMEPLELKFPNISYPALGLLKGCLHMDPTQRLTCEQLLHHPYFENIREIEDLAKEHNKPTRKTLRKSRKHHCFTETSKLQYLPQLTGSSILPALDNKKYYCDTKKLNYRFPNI

NEK11(h) = molecular target: T4, NEK11(h) (Homo sapiens, UniProt Q8NG66); experiment: Eurofins kinase panel; format: biochemical; settings: read-out: Inhibition rate (%)
T4 construct: purchased Eurofins (KinaseProfiler)
T4 sequence (Q8NG66 1-645): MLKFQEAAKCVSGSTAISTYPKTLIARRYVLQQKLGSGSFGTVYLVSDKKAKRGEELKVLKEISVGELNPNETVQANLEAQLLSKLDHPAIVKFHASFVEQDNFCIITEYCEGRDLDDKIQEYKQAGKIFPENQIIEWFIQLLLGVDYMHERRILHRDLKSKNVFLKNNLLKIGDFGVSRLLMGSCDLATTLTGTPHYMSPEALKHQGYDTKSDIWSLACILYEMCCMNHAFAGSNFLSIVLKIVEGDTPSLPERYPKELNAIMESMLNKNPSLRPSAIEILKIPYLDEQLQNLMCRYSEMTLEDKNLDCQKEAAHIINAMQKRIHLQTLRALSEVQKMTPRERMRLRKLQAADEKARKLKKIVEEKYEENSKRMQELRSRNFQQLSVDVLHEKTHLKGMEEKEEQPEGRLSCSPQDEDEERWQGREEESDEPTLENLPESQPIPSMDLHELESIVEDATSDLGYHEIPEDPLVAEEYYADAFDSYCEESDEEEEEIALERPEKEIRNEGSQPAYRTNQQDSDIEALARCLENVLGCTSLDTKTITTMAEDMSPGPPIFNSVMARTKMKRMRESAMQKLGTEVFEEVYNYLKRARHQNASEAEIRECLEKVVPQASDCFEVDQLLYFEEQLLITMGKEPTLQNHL

CLK2(h) = molecular target: T5, CLK2(h) (Homo sapiens, UniProt P49760); experiment: Eurofins kinase panel; format: biochemical; settings: read-out: Inhibition rate (%)
T5 construct: purchased Eurofins (KinaseProfiler)
T5 sequence (P49760 whole entry): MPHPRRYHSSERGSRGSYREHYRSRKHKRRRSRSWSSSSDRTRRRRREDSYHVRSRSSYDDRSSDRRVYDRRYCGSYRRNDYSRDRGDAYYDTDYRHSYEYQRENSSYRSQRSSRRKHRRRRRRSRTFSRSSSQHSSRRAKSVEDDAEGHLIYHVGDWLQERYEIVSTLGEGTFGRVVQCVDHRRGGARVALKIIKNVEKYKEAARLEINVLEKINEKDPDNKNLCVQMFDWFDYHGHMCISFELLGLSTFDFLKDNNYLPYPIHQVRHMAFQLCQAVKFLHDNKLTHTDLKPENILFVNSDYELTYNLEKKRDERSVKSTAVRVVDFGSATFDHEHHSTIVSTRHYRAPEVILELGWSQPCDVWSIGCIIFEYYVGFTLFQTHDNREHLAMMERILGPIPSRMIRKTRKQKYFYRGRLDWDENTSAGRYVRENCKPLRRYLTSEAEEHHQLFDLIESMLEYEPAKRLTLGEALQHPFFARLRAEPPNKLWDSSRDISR

[1] = system: bFGF-induced primary HUVECs; experiment: bFGF-induced HUVEC proliferation (CCK-8); format: cell-based, human
Abl(h) = molecular target: T6, Abl(h) (Homo sapiens, UniProt P00519); experiment: Eurofins kinase panel; format: biochemical; settings: read-out: Inhibition rate (%)
T6 construct: purchased Eurofins (KinaseProfiler)

BMDM (CSF-1) = experiment: Macrophage survival (CCK-8); format: cell-based, murine; settings: Mus musculus, BMDM, 168 h; 7 days, mean ± SD
Experimental: Murine bone marrow and human monocytes were stimulated with CSF-1 for 7 days together with the indicated inhibitor, and cell viability was evaluated by the CCK-8 assay. The IC50 values are shown as the mean ± SD (nM) from two independent tests. B-E, To test the impact of 3D185 on the polarization of CSF-1-induced macrophages, murine bone marrow cells and human monocytes were induced to mature into macrophages with CSF-1 for 7 days and then stimulated with CSF-1, IL-4 and IL-13 for an additional 48 h. The expression of the markers MHC-II (b), CD86 (c), and CD206 (d) on induced murine macrophages and CD206 expression on induced human macrophages (e) were determined by flow cytometry, and the mean fluorescence intensity (MFI) was analyzed with FlowJo. Representative data from two independent experiments. f Murine bone marrow cells (left panel) and human monocytes (right panel) were induced to mature into macrophages with CSF-1 for 7 days and then stimulated with CSF-1, IL-4 and IL-13 and treated with vehicle or the indicated inhibitor for an additional 48 h. Then, all cells were collected to count viable cells by staining with trypan blue
Murine bone marrow-derived macrophages (BMDMs) and PBMCs were used for cell viability studies. BMDMs were harvested by flushing the tibias and femurs of 6- to 8-week-old C57BL/6 mice and depleting red blood cells (RBCs) by RBC lysis (Biogems). For BMDM survival, the cells were cultured for 7 days in RPMI 1640 containing 10% fetal bovine serum (FBS), 100 U/mL penicillin, 100 μg/mL streptomycin and 100 ng/mL mouse CSF-1 (or CSF-2) with or without the tested compounds. PBMCs were obtained from HemaCare and cultured for 7 days in RPMI 1640 containing 10% fetal bovine serum (FBS), 100 U/mL penicillin, 100 μg/mL streptomycin and 100 ng/mL human CSF-1 (or CSF-2) with or without the tested compounds. Cell viability was measured using the CCK-8 assay. For IL-4/IL-13-induced macrophage survival analysis, viable cells were counted by trypan blue exclusion.

FGFR1(V561M)(h) = FGFR1(V561M)(h) (Homo sapiens, UniProt P11362, V561M); experiment: Eurofins kinase panel; format: biochemical
Chain of FGFR1(V561M)(h) (P11362 22-822 V561M): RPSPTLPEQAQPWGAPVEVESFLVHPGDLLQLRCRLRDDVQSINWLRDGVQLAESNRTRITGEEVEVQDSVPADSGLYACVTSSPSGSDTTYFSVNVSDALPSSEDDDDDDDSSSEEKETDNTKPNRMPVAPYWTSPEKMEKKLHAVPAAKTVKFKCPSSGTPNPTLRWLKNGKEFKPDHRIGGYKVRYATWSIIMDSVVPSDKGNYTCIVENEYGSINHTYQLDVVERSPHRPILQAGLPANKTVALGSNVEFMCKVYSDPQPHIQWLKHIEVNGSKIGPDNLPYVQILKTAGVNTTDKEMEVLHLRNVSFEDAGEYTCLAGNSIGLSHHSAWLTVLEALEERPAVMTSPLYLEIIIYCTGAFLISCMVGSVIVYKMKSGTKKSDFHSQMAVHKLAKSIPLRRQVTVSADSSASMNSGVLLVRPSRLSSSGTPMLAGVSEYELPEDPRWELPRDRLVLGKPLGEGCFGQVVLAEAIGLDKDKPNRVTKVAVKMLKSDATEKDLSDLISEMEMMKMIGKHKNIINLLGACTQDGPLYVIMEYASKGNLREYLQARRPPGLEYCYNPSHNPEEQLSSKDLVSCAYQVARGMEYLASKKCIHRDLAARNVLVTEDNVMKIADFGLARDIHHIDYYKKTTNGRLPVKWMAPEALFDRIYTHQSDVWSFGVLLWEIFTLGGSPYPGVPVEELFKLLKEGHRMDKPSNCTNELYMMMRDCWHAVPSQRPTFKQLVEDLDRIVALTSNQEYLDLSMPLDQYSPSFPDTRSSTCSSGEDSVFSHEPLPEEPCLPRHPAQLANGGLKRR

CDK9/cyclin T1(h) = molecular target: T7, CDK9/cyclin T1(h) (Homo sapiens, UniProt P50750); experiment: Eurofins kinase panel; format: biochemical; settings: read-out: Inhibition rate (%)
T7 construct: purchased Eurofins (KinaseProfiler)
T7 sequence (P50750 whole entry): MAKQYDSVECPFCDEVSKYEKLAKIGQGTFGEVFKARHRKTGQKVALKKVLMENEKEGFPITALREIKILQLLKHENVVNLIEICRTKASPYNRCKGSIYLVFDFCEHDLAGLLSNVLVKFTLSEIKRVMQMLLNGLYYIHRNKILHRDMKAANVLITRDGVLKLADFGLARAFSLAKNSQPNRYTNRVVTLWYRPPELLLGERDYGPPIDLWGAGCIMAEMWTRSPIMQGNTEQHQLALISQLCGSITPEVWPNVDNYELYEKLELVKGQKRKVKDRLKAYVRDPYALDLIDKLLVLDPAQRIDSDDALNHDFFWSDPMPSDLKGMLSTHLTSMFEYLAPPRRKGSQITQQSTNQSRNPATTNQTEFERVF
T7 sequence (O60563 whole entry partner): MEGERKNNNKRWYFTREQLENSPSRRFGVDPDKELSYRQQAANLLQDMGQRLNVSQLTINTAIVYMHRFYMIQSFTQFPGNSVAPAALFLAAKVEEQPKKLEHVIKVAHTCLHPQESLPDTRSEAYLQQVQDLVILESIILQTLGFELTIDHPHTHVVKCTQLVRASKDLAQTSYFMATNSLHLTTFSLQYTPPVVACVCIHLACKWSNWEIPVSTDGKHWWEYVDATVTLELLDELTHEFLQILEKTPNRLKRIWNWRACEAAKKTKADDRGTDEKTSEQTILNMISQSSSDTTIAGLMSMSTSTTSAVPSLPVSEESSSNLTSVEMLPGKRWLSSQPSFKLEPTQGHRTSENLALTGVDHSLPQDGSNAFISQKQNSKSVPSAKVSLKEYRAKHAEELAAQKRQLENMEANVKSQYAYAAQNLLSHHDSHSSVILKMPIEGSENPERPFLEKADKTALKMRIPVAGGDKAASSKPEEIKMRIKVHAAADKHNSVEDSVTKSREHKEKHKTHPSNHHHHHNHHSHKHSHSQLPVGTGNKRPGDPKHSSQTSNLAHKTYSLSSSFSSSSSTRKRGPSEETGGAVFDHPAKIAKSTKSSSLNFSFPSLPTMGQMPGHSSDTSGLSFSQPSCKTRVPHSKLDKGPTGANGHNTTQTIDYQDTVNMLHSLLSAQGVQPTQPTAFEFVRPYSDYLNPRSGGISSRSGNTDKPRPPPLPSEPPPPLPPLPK

[2] = system: CSF-1-differentiated macrophages induced RT112 cell migration; experiment: Tumor cell migration assay (Transwell co-culture); format: cell-based, human; settings: 25 nM, 24 h
ChaK1(h) = molecular target: T8, ChaK1(h) (Homo sapiens, UniProt Q96QT4); experiment: Eurofins kinase panel; format: biochemical; settings: read-out: Inhibition rate (%)
T8 construct: purchased Eurofins (KinaseProfiler)
T8 sequence (Q96QT4 whole entry): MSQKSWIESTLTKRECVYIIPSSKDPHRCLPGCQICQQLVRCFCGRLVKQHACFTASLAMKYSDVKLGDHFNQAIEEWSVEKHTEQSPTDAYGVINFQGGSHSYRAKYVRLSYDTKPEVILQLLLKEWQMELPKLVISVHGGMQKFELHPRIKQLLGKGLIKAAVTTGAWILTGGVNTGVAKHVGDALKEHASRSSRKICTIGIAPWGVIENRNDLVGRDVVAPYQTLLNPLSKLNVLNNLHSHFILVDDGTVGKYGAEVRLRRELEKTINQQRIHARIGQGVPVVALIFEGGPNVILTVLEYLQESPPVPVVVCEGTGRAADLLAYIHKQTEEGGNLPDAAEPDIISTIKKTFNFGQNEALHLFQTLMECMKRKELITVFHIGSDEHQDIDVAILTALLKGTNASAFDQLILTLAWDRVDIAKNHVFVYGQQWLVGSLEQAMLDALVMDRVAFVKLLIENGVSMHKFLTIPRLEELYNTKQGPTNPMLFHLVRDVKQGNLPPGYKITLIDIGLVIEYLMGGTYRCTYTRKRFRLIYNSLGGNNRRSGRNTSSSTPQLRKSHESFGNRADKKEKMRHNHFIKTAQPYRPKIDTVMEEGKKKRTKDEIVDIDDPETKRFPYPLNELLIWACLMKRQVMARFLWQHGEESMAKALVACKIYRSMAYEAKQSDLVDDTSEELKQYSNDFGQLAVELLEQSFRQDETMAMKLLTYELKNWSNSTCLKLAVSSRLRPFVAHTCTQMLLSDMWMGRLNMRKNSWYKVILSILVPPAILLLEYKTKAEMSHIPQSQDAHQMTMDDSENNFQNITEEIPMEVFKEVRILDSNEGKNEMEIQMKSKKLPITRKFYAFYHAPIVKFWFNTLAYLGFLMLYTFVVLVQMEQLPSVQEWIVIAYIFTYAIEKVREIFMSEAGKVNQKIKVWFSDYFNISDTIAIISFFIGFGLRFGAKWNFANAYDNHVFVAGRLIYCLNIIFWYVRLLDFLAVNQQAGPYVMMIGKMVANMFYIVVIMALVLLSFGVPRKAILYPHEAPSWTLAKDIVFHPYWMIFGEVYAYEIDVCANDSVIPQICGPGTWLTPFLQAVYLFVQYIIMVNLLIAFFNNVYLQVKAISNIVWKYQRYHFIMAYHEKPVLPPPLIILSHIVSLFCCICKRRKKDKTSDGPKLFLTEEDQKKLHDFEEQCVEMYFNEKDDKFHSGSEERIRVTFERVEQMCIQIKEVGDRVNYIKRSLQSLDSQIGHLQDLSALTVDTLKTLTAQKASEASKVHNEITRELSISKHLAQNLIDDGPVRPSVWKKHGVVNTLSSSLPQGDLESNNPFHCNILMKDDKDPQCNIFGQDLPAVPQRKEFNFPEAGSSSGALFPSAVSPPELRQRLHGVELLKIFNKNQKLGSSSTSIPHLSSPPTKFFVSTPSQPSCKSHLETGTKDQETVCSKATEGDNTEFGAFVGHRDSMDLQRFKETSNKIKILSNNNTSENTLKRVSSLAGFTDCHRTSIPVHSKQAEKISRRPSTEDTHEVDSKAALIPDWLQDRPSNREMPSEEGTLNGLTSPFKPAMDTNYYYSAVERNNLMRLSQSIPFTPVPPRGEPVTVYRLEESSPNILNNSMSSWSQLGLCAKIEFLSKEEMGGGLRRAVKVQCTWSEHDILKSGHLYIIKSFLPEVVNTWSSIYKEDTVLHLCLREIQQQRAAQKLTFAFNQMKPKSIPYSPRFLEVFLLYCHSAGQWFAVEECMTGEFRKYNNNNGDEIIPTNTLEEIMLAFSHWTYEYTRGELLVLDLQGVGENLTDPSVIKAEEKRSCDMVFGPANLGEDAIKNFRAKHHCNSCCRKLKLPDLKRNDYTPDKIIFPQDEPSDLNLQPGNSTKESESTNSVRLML

COc1cc(OC)c(Cl)c(-c2ccc3c(NC(=O)c4ccc(N5CCNC(C)(C)C5)cc4)n[nH]c3n2)c1Cl [3D185]
IC50 (M-NFS-60): 16.7 ± 2.5 nM | IC50 (FGFR2): 1.3 nM | inhibition at 0.01 µM (STK25(h); 10 nM): 7% | inhibition at 0.1 µM (STK25(h); 100 nM): 22% | inhibition at 1 µM (STK25(h); 1000 nM): 57% | inhibition at 0.01 µM (CDKL1(h); 10 nM): 3% | inhibition at 0.1 µM (CDKL1(h); 100 nM): -5% | inhibition at 1 µM (CDKL1(h); 1000 nM): 0% | inhibition at 0.01 µM (NEK11(h); 10 nM): 5% | inhibition at 0.1 µM (NEK11(h); 100 nM): 15% | inhibition at 1 µM (NEK11(h); 1000 nM): 37% | inhibition at 0.01 µM (CLK2(h); 10 nM): 5% | inhibition at 0.1 µM (CLK2(h); 100 nM): 3% | inhibition at 1 µM (CLK2(h); 1000 nM): 7% | IC50 ([1]; Homo sapiens, HUVEC, bFGF 100 ng/mL, 48 h): 0.5 nM | fold more potent on bFGF-induced than VEGF-induced HUVEC proliferation ([1]; cellular assays): greater than 176 fold | inhibition at 0.01 µM (Abl(h); 10 nM): 3% | inhibition at 0.1 µM (Abl(h); 100 nM): 43% | inhibition at 1 µM (Abl(h); 1000 nM): 81% | IC50 (BMDM (CSF-1)): 57.8 nM | IC50 (FGFR1(V561M)(h); estimated from 372-kinase panel): < 10 nM | inhibition at 0.01 µM (FGFR1(V561M)(h); read-out: Inhibition rate (%)): 58% | inhibition at 0.1 µM (FGFR1(V561M)(h); read-out: Inhibition rate (%)): 94% | inhibition at 1 µM (FGFR1(V561M)(h); read-out: Inhibition rate (%)): 100% | inhibition at 0.01 µM (CDK9/cyclin T1(h); 10 nM): -12% | inhibition at 0.1 µM (CDK9/cyclin T1(h); 100 nM): 0% | inhibition at 1 µM (CDK9/cyclin T1(h); 1000 nM): 4% | effect on macrophage-induced RT112 cell migration [2]: blocking most cell migration | inhibition at 0.01 µM (ChaK1(h); 10 nM): 2% | inhibition at 0.1 µM (ChaK1(h); 100 nM): -10% | inhibition at 1 µM (ChaK1(h); 1000 nM): 8%
